Test results: patent publication US8343983B2, “Substituted pyrazolo-pyrimidine compounds” (ArQule, Inc., priority 2009, dated 2013)
Where two headings read alike, the source gives them in different places.

Tested on: cancer cells
Assay: MTS assay: inhibition of cell growth (formazan absorbance at 492 nm after 72 hours with test compound)
Format: cell-based
Details: inhibition class
Experimental: Cells were maintained at 37° C., 5% CO2 in DMEM media supplemented with 1% fetal bovine serum, penicillin/streptomycin and fungizone (Invitrogen). Cells were seeded into 96-well tissue culture plates at 3000 per well and cultured at 37° C. for 18 hours. Test compounds were dissolved and diluted to 300× in DMSO then diluted 1:40 in DMEM. Cells were incubated with test compounds for 72 hours followed by incubation with tetrazolium compound (3-(4,5-dimethylthiazol-2-yl)-5-(3-carboxymethoxyphenyl)-2-(4-sulfophenyl)-2H-tetrazolium, inner salt; MTS) and the electron coupling reagent, phenazine methosulfate (PMS) for 4 hours. […] The ability of compounds to inhibit cell growth in this assay is correlated with the reduction of dehydrogenase enzyme activity found in metabolically active cells. The measurement of the absorbance of the formazan was assessed using an ENVISION™ (Perkin Elmer) microplate reader at 492 nm. The calculated IC50 value is the concentration of the test compound that causes a 50% decrease in the absorbance. […] A=>79% inhibition, B=>50 to 79% inhibition, C=<50% inhibition.

[1] = Homo sapiens, DLD-1 cells, read-out: DLD-1, MTS 72 hours at 10 uM
[2] = Homo sapiens, KATO III cells, read-out: KATO III, MTS 72 hours at 10 uM
[3] = Homo sapiens, MDA-MB-231 cells, read-out: MDA-MB-231, MTS 72 hours at 10 uM
[4] = Homo sapiens, NCI-H1299 cells, read-out: NCI-H1299, MTS 72 hours at 10 uM
[5] = Homo sapiens, PC-3 cells, read-out: PC-3, MTS 72 hours at 10 uM
[6] = PACA-2 cells, read-out: PACA-2, MTS 72 hours at 10 uM

Row | Structure (SMILES) | inhibition at 10 µM [1] [%] | inhibition at 10 µM [2] [%] | inhibition at 10 µM [3] [%] | inhibition at 10 µM [4] [%] | inhibition at 10 µM [5] [%] | inhibition at 10 µM [6] [%]
1 | c1ccc(CN2CCc3n[nH]c4nc(NCc5cccc(-c6ccccc6)c5)nc2c34)cc1 [Compound 71, 6-benzyl-N-(biphenyl-3-ylmethyl)-2,6,7,8-tetrahydro-1,2,3,5,6-pentaazaacenaphthylen-4-amine] | 50 to 79 | 50 to 79 | 50 to 79 | 50 to 79 | < 50 | 50 to 79
2 | Clc1cccc(Oc2ccccc2)c1CNc1nc2c3c(n[nH]c3n1)CCN2Cc1ccccc1 [Compound 16, 6-benzyl-N-(2-chloro-6-phenoxybenzyl)-2,6,7,8-tetrahydro-1,2,3,5,6-pentaazaacenaphthylen-4-amine] | < 50 | < 50 | < 50 | 50 to 79 | 50 to 79 | < 50
3 | Clc1cccc(CCNc2nc3c4c(n[nH]c4n2)CCN3Cc2ccccc2)c1 [Compound 12, 6-benzyl-N-[2-(3-chlorophenyl)ethyl]-2,6,7,8-tetrahydro-1,2,3,5,6-pentaazaacenaphthylen-4-amine] | 50 to 79 | 50 to 79 | < 50 | 50 to 79 | < 50 | < 50
4 | O=C(NCc1ccccc1)C1CN(Cc2ccccc2)c2nc(NCCc3c[nH]c4ccccc34)nc3[nH]nc1c23 (stereo not drawn) [Compound 226, N,6-dibenzyl-4-{[2-(1H-indol-3-yl)ethyl]amino}-2,6,7,8-tetrahydro-1,2,3,5,6-pentaazaacenaphthylene-8-carboxamide] | > 79 | > 79 | > 79 | > 79 | > 79 | > 79
5 | COc1ccc(CN2CCc3n[nH]c4nc(NCc5ccc(Cl)cc5)nc2c34)cc1 [Compound 117, N-(4-chlorobenzyl)-6-(4-methoxybenzyl)-2,6,7,8-tetrahydro-1,2,3,5,6-pentaazaacenaphthylen-4-amine] | 50 to 79 | < 50 | 50 to 79 | 50 to 79 | < 50 | < 50
6 | COc1cc(OC)nc(CN2CCN(c3nc4c5c(n[nH]c5n3)CCN4Cc3ccccc3)CC2)n1 [Compound 20, 6-benzyl-4-{4-[(4,6-dimethoxypyrimidin-2-yl)methyl]piperazin-1-yl}-2,6,7,8-tetrahydro-1,2,3,5,6-pentaazaacenaphthylene] | < 50 | < 50 | < 50 | < 50 | < 50 | < 50
7 | c1ccc(CN2CCN(CCNc3nc4c5c(n[nH]c5n3)CCN4Cc3ccccc3)CC2)cc1 [Compound 33, 6-benzyl-N-[2-(4-benzylpiperazin-1-yl)ethyl]-2,6,7,8-tetrahydro-1,2,3,5,6-pentaazaacenaphthylen-4-amine] | < 50 | < 50 | < 50 | < 50 | < 50 | < 50
8 | COc1ccc(CN2CCCc3n[nH]c4nc(NCc5ccccc5Cl)nc2c34)cc1 [Compound 250, N-(2-chlorobenzyl)-6-(4-methoxybenzyl)-6,7,8,9-tetrahydro-2H-1,2,3,5,6-pentaazabenzo[cd]azulen-4-amine] | 50 to 79 | > 79 | 50 to 79 | < 50 | > 79 | > 79
9 | CC(C)CNC(=O)C1CN(Cc2ccccc2)c2nc(NCc3ccccc3)nc3[nH]nc1c23 (stereo not drawn) [Compound 236, 6-benzyl-4-(benzylamino)-N-(2-methylpropyl)-2,6,7,8-tetrahydro-1,2,3,5,6-pentaazaacenaphthylene-8-carboxamide] | < 50 | < 50 | < 50 | < 50 | < 50 | < 50
10 | OCCN1CCN(c2nc3c4c(n[nH]c4n2)CCN3Cc2ccccc2)CC1 [Compound 75, 2-[4-(6-benzyl-2,6,7,8-tetrahydro-1,2,3,5,6-pentaazaacenaphthylen-4-yl)piperazin-1-yl]ethanol] | < 50 | < 50 | < 50 | < 50 | < 50 | < 50
11 | c1ccc(CN2CCc3n[nH]c4nc(NCc5cccnc5)nc2c34)cc1 [Compound 10, 6-benzyl-N-(pyridin-3-ylmethyl)-2,6,7,8-tetrahydro-1,2,3,5,6-pentaazaacenaphthylen-4-amine] | < 50 | < 50 | < 50 | < 50 | < 50 | < 50
12 | COc1ccc(CN2CCc3n[nH]c4nc(NCCc5ccccc5)nc2c34)cc1 [Compound 116, 6-(4-methoxybenzyl)-N-(2-phenylethyl)-2,6,7,8-tetrahydro-1,2,3,5,6-pentaazaacenaphthylen-4-amine] | > 79 | > 79 | > 79 | > 79 | > 79 | > 79
13 | c1ccc(CN2CCc3n[nH]c4nc(N5CCN(c6cnccn6)CC5)nc2c34)cc1 [Compound 56, 6-benzyl-4-(4-pyrazin-2-ylpiperazin-1-yl)-2,6,7,8-tetrahydro-1,2,3,5,6-pentaazaacenaphthylene] | < 50 | < 50 | < 50 | < 50 | < 50 | < 50
14 | Fc1ccc(CCNc2nc3c4c(n[nH]c4n2)CCN3Cc2ccccc2)cc1 [Compound 46, 6-benzyl-N-[2-(4-fluorophenyl)ethyl]-2,6,7,8-tetrahydro-1,2,3,5,6-pentaazaacenaphthylen-4-amine] | > 79 | > 79 | > 79 | 50 to 79 | < 50 | > 79
15 | c1ccc(CN2CCc3n[nH]c4nc(NC5CCC5)nc2c34)cc1 [Compound 49, 6-benzyl-N-cyclobutyl-2,6,7,8-tetrahydro-1,2,3,5,6-pentaazaacenaphthylen-4-amine] | < 50 | < 50 | 50 to 79 | < 50 | < 50 | < 50
16 | CN(C(=O)C1CN(Cc2ccccc2)c2nc(NCc3ccccc3)nc3[nH]nc1c23)C1CCCCC1 (stereo not drawn) [Compound 239, 6-benzyl-4-(benzylamino)-N-cyclohexyl-N-methyl-2,6,7,8-tetrahydro-1,2,3,5,6-pentaazaacenaphthylene-8-carboxamide] | < 50 | < 50 | < 50 | < 50 | < 50 | < 50
17 | c1ccc(CN2CCc3n[nH]c4nc(N5CCN(c6ccccc6)CC5)nc2c34)cc1 [Compound 44, 6-benzyl-4-(4-phenylpiperazin-1-yl)-2,6,7,8-tetrahydro-1,2,3,5,6-pentaazaacenaphthylene] | < 50 | < 50 | < 50 | < 50 | < 50 | < 50
